Experimental data taken from paper PMC11247487, “Discovery of Dual MER/AXL Kinase Inhibitors as Bifunctional Small Molecules for Inhibiting Tumor Growth and Enhancing Tumor Immune Microenvironment” (Journal of Medicinal Chemistry, 2024).
“And” between values parts separate entries of the source, which are not always exact repeats. Equal entries are not always repeated. “Also recorded” adds a separate entry of the source.

Experiments:
MER = molecular target: T1, MER (Homo sapiens, UniProt Q12866); conditions: cited from earlier work
T1 construct: A purified kinase (MER or AXL) was incubated with a compound or DMSO
T1 sequence (Q12866 21-999): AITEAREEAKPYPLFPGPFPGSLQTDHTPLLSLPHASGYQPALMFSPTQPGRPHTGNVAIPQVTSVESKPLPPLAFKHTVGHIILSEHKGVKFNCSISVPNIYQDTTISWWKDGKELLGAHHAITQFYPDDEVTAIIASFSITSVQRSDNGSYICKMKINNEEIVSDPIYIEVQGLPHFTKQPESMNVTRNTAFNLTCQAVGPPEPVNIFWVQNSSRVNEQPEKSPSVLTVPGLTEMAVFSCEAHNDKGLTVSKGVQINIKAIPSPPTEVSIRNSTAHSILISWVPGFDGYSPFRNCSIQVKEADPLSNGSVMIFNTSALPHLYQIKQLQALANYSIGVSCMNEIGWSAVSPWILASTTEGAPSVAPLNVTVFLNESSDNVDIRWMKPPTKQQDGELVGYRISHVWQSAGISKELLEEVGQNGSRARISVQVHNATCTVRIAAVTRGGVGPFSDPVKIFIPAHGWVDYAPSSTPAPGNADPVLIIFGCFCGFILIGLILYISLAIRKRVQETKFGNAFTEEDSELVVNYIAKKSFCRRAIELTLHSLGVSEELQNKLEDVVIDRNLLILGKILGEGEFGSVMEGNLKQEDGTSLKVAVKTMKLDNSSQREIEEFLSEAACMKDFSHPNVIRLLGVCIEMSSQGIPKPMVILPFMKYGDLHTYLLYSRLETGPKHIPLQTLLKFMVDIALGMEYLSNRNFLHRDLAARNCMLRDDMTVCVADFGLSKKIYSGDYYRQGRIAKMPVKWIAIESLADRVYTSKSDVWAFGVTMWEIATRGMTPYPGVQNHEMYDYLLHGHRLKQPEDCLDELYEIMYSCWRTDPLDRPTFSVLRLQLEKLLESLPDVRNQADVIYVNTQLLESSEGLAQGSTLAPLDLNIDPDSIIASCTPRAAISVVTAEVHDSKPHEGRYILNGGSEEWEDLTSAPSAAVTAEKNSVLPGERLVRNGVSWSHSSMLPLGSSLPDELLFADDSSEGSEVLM

FLT3 [1] = test system: FLT3; design: method as in PMID 25068800, PMID 27649555; conditions: cited from earlier work
[2] = test system: AXL phosphorylation in H1299 cells; experiment: Western blotting of AXL phosphorylation; conditions: 1 h treatment
IRR = IRR (Homo sapiens, UniProt P14616); experiment: HotSpot kinase assay; conditions: read-out: % Enzyme Activity
TRKA = TRKA (Homo sapiens, UniProt P04629); experiment: HotSpot kinase assay; conditions: read-out: % Enzyme Activity
TRKA, sequence (P04629 33-796): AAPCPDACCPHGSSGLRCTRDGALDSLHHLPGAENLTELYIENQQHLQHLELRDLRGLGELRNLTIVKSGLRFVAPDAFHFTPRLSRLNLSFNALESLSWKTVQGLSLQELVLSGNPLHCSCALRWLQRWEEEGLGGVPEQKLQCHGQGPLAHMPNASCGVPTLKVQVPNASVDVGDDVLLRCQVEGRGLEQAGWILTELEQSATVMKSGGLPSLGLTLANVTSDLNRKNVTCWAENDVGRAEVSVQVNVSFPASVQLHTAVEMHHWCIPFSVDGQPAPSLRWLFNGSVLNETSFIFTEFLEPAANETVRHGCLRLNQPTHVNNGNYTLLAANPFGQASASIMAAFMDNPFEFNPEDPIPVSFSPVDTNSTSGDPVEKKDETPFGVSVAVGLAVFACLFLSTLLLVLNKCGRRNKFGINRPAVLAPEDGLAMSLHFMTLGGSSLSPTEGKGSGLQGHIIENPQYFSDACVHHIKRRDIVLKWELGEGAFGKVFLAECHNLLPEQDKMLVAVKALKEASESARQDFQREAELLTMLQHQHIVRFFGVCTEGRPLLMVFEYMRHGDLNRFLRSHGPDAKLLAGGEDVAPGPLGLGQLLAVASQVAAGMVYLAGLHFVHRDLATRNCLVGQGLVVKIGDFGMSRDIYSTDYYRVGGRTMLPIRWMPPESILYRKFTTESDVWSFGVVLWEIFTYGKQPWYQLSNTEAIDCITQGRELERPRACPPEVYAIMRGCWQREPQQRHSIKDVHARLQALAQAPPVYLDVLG

TRKC = TRKC (Homo sapiens, UniProt Q16288); experiment: HotSpot kinase assay; conditions: read-out: % Enzyme Activity
TRKC, sequence (Q16288 32-839): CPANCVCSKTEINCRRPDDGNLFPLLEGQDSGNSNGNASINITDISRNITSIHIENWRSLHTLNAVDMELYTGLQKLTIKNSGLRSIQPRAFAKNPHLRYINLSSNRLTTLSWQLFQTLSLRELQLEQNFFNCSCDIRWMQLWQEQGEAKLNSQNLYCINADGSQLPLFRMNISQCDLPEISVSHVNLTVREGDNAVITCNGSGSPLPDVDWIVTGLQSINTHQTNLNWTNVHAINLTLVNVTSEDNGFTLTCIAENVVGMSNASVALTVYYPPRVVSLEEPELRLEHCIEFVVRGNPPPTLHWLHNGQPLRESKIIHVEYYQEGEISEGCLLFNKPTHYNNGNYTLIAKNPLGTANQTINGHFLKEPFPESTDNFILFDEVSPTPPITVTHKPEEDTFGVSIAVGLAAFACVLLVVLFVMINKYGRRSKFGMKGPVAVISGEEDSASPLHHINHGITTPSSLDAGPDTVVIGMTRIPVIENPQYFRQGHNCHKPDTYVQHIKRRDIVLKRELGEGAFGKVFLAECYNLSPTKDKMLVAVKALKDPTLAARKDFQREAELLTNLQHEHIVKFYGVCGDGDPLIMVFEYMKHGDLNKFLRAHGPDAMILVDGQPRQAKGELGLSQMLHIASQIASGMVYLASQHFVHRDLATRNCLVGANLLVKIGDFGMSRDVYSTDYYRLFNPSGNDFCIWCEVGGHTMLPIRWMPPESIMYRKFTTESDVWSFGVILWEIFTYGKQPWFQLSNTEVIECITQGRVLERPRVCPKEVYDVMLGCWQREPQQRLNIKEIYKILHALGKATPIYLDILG

FLT3 [3] = molecular target: FLT3 (Homo sapiens, UniProt P36888); experiment: HotSpot kinase assay; conditions: read-out: % Enzyme Activity
[4] = test system: immune cells in tumor and spleen of MC38 tumor-bearing mice; experiment: Immunophenotyping by flow cytometry; type: in vivo; conditions: 50 mg/kg QD, FOTO, 2 weeks
Procedure: Tumor and spleen tissues from the control and treated animals were harvested 2 h after the last dose (day 11). […] tissues were carefully removed from the tumors followed by digestion with 0.1% collagenase III in DMEM medium for 30 min at 37 °C with agitation every 10 min. The digestion was terminated by adding 10% FBS containing PBS. The single-cell suspension was filtered through a 40 μm filter after red blood cell lysis. Aliquots of the cell suspension were preincubated with the mouse Fc receptor blocker for 10 min before staining with appropriate antimouse antibody conjugate for Cd45, Cd3, Cd4, Cd8, Cd11b, Cd86, F4/80, AXL, and MER (all antibody conjugates from BioLegend) at 4 °C for 30 min followed by two washes in 1% BSA containing buffer and analyzed by flow cytometry to quantify the accumulation of infiltrating immune cells into the tumor. For analysis of Cd206, the cells were fixed using the Cyto X/Cytoperm kit (BD Biosciences) after surface marker staining and then stained with antimouse Cd206 antibody.

[5] = 14-day repeated dose toxicity study; conditions: ICR mice
Ba/F3-MER cells = experiment: Cell viability assay (MTS); type: cell-based; conditions: 72 h
DDR1 = DDR1 (Homo sapiens, UniProt Q08345); experiment: HotSpot kinase assay; conditions: read-out: % Enzyme Activity
[6] = In vitro microsomal stability assay; type: in vitro ADME; conditions: 1 μM, mouse liver microsomes, percent remaining at 30 min
Procedure: All incubations were initiated with the addition of NADPH-generating system at 37 °C for 30 min. At 0 and the end of incubation, 100 μL of aliquots were taken from the incubation mixture and placed into centrifuge tubes containing 100 μL of ice-cold acetonitrile to terminate the metabolic reaction. The samples were vortexed and centrifuged, and then, the supernatant injected onto LC/MS. Percent of remaining of each compound was calculated by comparing peak areas at 30 min to that at the initiation of incubation.

[7] = test system: MER phosphorylation in G361 cells; experiment: Western blotting of MER phosphorylation; conditions: 48 h treatment
DDR2 = DDR2 (Homo sapiens, UniProt Q16832); experiment: HotSpot kinase assay; conditions: read-out: % Enzyme Activity
DDR2, sequence (Q16832 22-855): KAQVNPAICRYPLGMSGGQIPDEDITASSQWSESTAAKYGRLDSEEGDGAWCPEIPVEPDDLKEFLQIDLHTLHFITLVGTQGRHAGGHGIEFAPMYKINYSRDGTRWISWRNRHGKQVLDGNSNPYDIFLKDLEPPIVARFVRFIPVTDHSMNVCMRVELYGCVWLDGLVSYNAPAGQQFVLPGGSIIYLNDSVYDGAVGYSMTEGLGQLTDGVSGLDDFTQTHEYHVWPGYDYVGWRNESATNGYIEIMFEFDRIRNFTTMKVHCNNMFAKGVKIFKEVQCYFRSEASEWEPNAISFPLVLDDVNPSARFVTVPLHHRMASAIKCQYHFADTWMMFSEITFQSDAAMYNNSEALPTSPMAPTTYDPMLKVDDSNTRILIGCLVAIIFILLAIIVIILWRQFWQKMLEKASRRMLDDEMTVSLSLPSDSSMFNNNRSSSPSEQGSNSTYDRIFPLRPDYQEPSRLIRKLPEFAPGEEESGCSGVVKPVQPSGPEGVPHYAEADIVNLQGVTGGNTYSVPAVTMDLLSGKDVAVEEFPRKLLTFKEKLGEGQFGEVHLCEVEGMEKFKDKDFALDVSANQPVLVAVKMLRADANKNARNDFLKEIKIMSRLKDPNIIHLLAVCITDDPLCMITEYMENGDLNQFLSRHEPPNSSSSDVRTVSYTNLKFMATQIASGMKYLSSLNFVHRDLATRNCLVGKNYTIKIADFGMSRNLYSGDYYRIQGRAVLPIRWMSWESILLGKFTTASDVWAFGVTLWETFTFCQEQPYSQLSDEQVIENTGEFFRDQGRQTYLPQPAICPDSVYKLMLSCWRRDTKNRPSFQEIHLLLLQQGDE

[8] = In vivo pharmacokinetics study; conditions: mice
Procedure: The animal studies were performed according to NHRI institutional animal care and committee-approved procedures. Male ICR mice (25–35 g) were obtained from BioLASCO (Taiwan Co., Ltd., Ilan, Taiwan). […] All samples were analyzed for the parent drug by LC-MS/MS. Plasma concentration data were analyzed with a noncompartmental method.

[9] = mouse, in vivo
ROS1 = ROS1 (Homo sapiens, UniProt P08922); experiment: HotSpot kinase assay; conditions: read-out: % Enzyme Activity
ROS1, sequence (P08922 28-2347): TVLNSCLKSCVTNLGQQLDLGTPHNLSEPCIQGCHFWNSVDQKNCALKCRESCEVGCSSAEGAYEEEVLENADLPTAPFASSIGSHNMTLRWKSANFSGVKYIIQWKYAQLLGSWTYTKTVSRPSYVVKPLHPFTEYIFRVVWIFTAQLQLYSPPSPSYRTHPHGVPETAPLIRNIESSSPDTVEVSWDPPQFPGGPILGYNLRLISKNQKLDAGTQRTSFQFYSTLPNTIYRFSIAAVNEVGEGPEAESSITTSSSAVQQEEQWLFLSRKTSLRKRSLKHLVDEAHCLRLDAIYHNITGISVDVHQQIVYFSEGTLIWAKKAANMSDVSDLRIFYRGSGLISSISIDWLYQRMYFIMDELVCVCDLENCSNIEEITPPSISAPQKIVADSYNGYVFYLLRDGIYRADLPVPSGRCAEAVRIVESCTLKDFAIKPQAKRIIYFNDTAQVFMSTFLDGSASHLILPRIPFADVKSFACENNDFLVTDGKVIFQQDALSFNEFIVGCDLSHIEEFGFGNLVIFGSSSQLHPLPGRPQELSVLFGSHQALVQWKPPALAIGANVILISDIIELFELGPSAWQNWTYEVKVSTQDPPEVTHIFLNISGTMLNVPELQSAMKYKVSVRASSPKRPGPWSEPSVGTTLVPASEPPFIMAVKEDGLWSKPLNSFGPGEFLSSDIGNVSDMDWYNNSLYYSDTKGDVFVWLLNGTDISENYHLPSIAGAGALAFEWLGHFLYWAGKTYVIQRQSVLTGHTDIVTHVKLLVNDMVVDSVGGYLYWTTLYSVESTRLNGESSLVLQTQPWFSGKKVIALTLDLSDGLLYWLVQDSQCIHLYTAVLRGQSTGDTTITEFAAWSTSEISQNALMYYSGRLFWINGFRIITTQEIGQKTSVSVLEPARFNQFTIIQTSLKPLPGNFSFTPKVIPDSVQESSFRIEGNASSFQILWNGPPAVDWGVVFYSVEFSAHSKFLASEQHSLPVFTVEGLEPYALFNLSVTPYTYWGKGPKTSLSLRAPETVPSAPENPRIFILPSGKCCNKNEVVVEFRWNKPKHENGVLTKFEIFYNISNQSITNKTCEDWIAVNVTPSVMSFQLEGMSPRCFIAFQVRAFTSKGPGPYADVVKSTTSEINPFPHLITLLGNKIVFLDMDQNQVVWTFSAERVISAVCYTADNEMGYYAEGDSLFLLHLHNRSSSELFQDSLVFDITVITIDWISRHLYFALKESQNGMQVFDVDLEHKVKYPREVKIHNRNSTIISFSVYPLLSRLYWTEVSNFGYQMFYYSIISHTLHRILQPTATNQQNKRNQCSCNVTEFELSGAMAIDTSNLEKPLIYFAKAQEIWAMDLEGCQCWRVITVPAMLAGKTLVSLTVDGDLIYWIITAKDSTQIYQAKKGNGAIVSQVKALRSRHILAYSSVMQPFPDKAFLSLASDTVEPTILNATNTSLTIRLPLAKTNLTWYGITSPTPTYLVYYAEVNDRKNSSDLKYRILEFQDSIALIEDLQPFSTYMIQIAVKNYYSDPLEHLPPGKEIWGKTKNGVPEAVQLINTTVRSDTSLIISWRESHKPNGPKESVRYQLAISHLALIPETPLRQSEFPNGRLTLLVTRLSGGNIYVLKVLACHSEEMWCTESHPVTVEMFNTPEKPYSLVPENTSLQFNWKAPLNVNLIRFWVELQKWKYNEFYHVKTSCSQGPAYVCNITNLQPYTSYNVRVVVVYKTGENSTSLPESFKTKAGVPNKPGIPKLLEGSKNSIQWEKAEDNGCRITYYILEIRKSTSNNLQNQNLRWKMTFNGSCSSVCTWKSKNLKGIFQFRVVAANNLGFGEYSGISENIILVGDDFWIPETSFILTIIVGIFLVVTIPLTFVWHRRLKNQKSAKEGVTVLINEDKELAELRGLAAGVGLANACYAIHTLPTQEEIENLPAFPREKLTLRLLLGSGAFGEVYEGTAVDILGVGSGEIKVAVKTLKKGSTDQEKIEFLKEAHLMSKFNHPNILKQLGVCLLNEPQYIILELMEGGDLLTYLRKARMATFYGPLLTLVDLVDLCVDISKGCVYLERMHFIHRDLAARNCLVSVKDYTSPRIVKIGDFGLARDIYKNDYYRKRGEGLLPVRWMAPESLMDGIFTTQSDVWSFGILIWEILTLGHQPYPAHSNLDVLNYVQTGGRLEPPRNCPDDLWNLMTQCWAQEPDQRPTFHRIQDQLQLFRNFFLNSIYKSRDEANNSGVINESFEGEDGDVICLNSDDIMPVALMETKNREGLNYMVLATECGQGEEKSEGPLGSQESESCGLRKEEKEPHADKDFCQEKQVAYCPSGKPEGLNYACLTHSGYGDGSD

TRKB = TRKB (Homo sapiens, UniProt Q16620); experiment: HotSpot kinase assay; conditions: read-out: % Enzyme Activity
KIT = KIT (Homo sapiens, UniProt P10721); experiment: HotSpot kinase assay; conditions: read-out: % Enzyme Activity
MC38 murine colon tumor = experiment: MC38 syngeneic tumor model; type: in vivo, mice; conditions: MC38 tumor-bearing mice, 25-50 mg/kg orally, 3 weeks
[10] = male, ICR, mouse, plasma, iv 2 mg/kg, po 10 mg/kg

For `CCC[C@@H](C)Nc1ncc2c(C3CCN(C(=O)c4cc(C)nc(C)c4)CC3)cn([C@H]3CC[C@H](O)CC3)c2n1` [Compound 2, UNC5293], the IC50 (MER) is given as 0.9 nM.
For `CN(C)Cc1cccc(-c2c(-c3cnn(C)c3)oc3ncnc(Oc4ccc(NC(=O)c5cccn(-c6ccc(F)cc6)c5=O)cc4)c23)c1` [Compound 33, N-{4-[(5-{3-[(Dimethylamino)methyl]phenyl}-6-(1-methyl-1H-pyrazol-4-yl)furo[2,3-d]pyrimidin-4-yl)oxy]phenyl}-1-(4-fluorophenyl)-2-oxo-1,2-dihydropyridine-3-carboxamide], the “Gas6-mediated AXL phosphorylation” value [2] was “effectively blocked”, the remaining activity at 1 µM (IRR) was 1.79% and the remaining activity at 1 µM (TRKA) was 3.35%. The remaining activity at 1 µM (TRKC) was 2.26%, the remaining activity at 1 µM (FLT3 [3]) was -0.03% and the “increase in intratumoral M1-like macrophages” value [4] was 2 fold. For the same compound, the “increase in percentage of Cd3^+ pan-T cells in spleen” value [4] was 2 fold, the “increase in percentage of Cd4^+ helper T cells in spleen” value [4] was 2 fold and the “increase in percentage of Cd8^+ cytotoxic T cells in spleen” value [4] was 6 fold. For the same compound, the CBC [5] was “No significant”, the body weight [5] was “No effect on body” and the “kidney serum biomarker CRE” value [5] was “Mild effect on CRE; also recorded: mild decline in kidney serum biomarker CRE at 30 and 100 mpk”. For the same compound, the organ weight [5] was “No significant”, the IC50 (Ba/F3-MER cells) was 5 nM and 4.8 nM and the remaining activity at 1 µM (DDR1) was 9.39%. For the same compound, the “Microsomal stability @ 30 min” value [6] was 79%, the “MER phosphorylation induced by MAB8912” value [7] was “effectively blocked MER phosphorylation” and the remaining activity at 1 µM (DDR2) was 4.45%. The bioavailability [8, 10] was over 20%, the bioavailability at 24 h [8, 10] was 54.6% and the clearance ([8]; male, ICR, mouse, plasma, iv 2 mg/kg, read-out: iv CL) was 12.6 mL/min/kg. The half-life ([8]; male, ICR, mouse, plasma, iv 2 mg/kg, read-out: iv T1/2 (converted)) was 4.5 h, the Vd ([8]; male, ICR, mouse, plasma, iv 2 mg/kg, read-out: iv Vss) was 5.2 L/kg and the Tmax at 24 h ([8]; male, ICR, mouse, plasma, po 10 mg/kg) was 5.3 h. The half-life at 24 h ([8]; male, ICR, mouse, plasma, po 10 mg/kg, read-out: po T1/2 (converted)) was 5.2 h, the “iv DNAUC(0–inf)” value ([8]; iv 2 mg/kg, dose-normalized) was 1,573.0 ng × hr/mL and the “po DNAUC(0–inf)” value ([8]; po 10 mg/kg, dose-normalized) was 858.8 ng·h/mL. The “po DNCmax” value ([8]; po 10 mg/kg, dose-normalized) was 95.0 ng/mL, the “toxicity, 14-day repeated dose” value [9] was “no significant toxicity at any dose level” and the remaining activity at 1 µM (ROS1) was 2.88%. For the same compound, the remaining activity at 1 µM (TRKB) was 6.07%, the remaining activity at 1 µM (KIT) was 1.05% and the “body weight during treatment” value (MC38 murine colon tumor) was “well-tolerated without significant body weight loss”.
